Assay results taken from PubChem BioAssay AID652143 (Broad Institute, 2013).
Inconclusive results are not listed. Active and inactive are the calls of the source. No rule for the calls is given here.

Experiments:
Assay in all cases: apoptosis induction across cell line panel, profiling panel, mechanism study for HRAS target identification project, Caspase-Glo 3/7 luminescence, multiple timepoints (AID 652143)
U-251 = conditions: caspase 3/7 luminescence, 1/6/24 h
SNB-19 = conditions: caspase 3/7 luminescence, 1/6/24 h
LOX-IMVI = conditions: caspase 3/7 luminescence, 1/6/24 h, caspase 3/7 AC40, timepoint 3
HT-29 = conditions: caspase 3/7 luminescence, 1/6/24 h, caspase 3/7 AC40, timepoint 2
SR = conditions: caspase 3/7 luminescence, 1/6/24 h

## CCC(=O)N(c1ccc(OC)c(Cl)c1)C(C(=O)NCCc1ccccc1)c1cccs1 (stereo not given)
U-251
  outcome: inactive
SNB-19
  outcome: inactive
LOX-IMVI
  AC40: > 35 µM

## O=C(NCCOCCOCCOc1ccc(N(C(=O)CCl)C(C(=O)NCCc2ccccc2)c2cccs2)cc1Cl)c1ccc(COC2C#CCCCCC2)cc1 (stereo not given)
HT-29
  AC40: > 35 µM

## COc1ccc(N(C(=O)CCl)C(C(=O)NCCc2ccccc2)c2cccs2)cc1Cl (stereo not given)
U-251
  AC40: 14.7 µM
U-251; caspase 3/7 AC40, timepoint 2
  AC40: 1.45 µM
U-251; caspase 3/7 AC40, timepoint 3
  AC40: 0.948 µM
SR
  AC40: 22.2 µM
SR; caspase 3/7 AC40, timepoint 2
  AC40: 0.177 µM
SR; caspase 3/7 AC40, timepoint 3
  AC40: 0.551 µM

## CC(C)(C)OC(=O)NCCOCCOCCOc1ccc(N(C(=O)CCl)C(C(=O)NCCc2ccccc2)c2cccs2)cc1Cl (stereo not given)
SNB-19
  AC40: > 35 µM (inactive)

## CO[C@H]1C[C@@H]2CC[C@@H](C)[C@@](O)(O2)C(=O)C(=O)N2CCCC[C@H]2C(=O)O[C@H]([C@H](C)C[C@@H]2CC[C@@H](O)[C@H](OC)C2)CC(=O)[C@H](C)/C=C(\C)[C@@H](O)[C@@H](OC)C(=O)[C@H](C)C[C@H](C)/C=C/C=C/C=C/1C
SNB-19
  outcome: inactive
SNB-19; caspase 3/7 AC40, timepoint 2
  AC40: 35 µM

## Cc1onc(C(=O)N2CCN(C(c3ccc(Cl)cc3)c3ccc(OCCOCCOCCNC(=O)OC(C)(C)C)cc3)CC2)c1[N+](=O)[O-] (stereo not given)
SNB-19
  outcome: inactive

## Cc1onc(C(=O)N2CCN(C(c3ccc(Cl)cc3)c3ccc(Cl)cc3)CC2)c1[N+](=O)[O-]
SNB-19
  outcome: inactive
